{"source": "patent US20200214330A1", "about": "“RICE PROTEIN HYDROLYSATES WITH ANTI-INFLAMMATORY PROPERTIES” (ABBOTT LABORATORIES, priority 2017, published 2020)", "type_in_all_cases": "cell-based, murine", "key": {"[1]": {"tested_on": "TNFα secretion from RAW 264.7 cells", "assay": "LPS-induced TNFα secretion from RAW 264.7 macrophage cells", "conditions": "1 hour pretreatment at 0.5 μg/mL, FIG. 11", "procedure": "(§1) FIG. 11 illustrates in vitro early (6 hours after LPS stimulation) and late (24 hours after LPS stimulation) phase inhibition of TNFα secretion from macrophage cells (RAW264.7) pre-incubated with different levels of curcumin for 1 hour and then treated with LPS; Specific studies have determined effects of the hydrolysates on TNFα secretion, 4-1BBL expression, and NF-κB Expression in murine macrophages (RAW 264.7 cells) treated with LPS (see FIGS. 1-13). RPH-1 inhibits early and late phase TNFα secretion from cells in culture."}, "[2]": {"tested_on": "4-1BBL expression in RAW 264.7 cells", "assay": "LPS-induced 4-1BBL expression in RAW 264.7 macrophage cells", "conditions": "1 hour pretreatment at 0.5 μg/mL, FIG. 12", "procedure": "as §1, with “FIG. 5 illustrates in vitro early (6 hours after LPS stimulation) and late phase (24 hours after LPS stimulation) inhibition of 4-1BBL expression in macrophage cells (RAW264.7) pre-incubated for 1 hour with RPH-land then treated with LPS; […] FIG. 12” for “FIG. 11”, “of 4-1BBL expression in” for “of TNFα secretion from”, “pre-incubated for 1 hour” for “pre-incubated”, “curcumin” for “curcumin for 1 hour”"}, "[3]": {"tested_on": "NF-κB activation in RAW 264.7 cells", "assay": "LPS-induced NF-κB activation in RAW 264.7 macrophage cells", "conditions": "2.5 μg/mL pretreatment for 2 hours; 30 min after LPS stimulation; FIG. 13", "procedure": "FIG. 6 illustrates in vitro NF-κB activation (30 min after LPS stimulation) in macrophage cells (RAW264.7) preincubated for 2 hours with RPH-1 and then treated with LPS; FIG. 13 illustrates in vitro inhibition of nuclear factor kappa-light-chain-enhancer of activated B cells (NF-κB) activation in macrophage cells (RAW264.7) pre-incubated with curcumin for 2 hours and treated with LPS for 30 minutes; Specific studies have determined effects of the hydrolysates on TNFα secretion, 4-1BBL expression, and NF-κB Expression in murine macrophages (RAW 264.7 cells) treated with LPS (see FIGS. 1-13). Pretreatment with curcumin at 0.5 μg/mL and […] for 1 hour led to an inhibition of TNFα secretion (FIG. 11) and 4-IBBL expression (FIG. 12) at 6 hours and 24 hours following LPS treatment."}}}
{"compound": "COc1cc(C=CC(=O)CC(=O)C=Cc2ccc(O)c(OC)c2)ccc1O", "note": "[curcumin, 1,7-Bis-(4-hydroxy-3-methoxyphenyl)-hepta-1,6-diene-3,5-dione]", "values": [{"measurement": "TNFα secretion, early phase", "setting": "[1]; 6 hours after LPS", "value": "inhibition"}, {"measurement": "TNFα secretion, late phase", "setting": "[1]; 24 hours after LPS", "value": "inhibition"}, {"measurement": "4-1BBL expression, early phase", "setting": "[2]; 6 hours after LPS", "value": "inhibition"}, {"measurement": "4-1BBL expression, late phase", "setting": "[2]; 24 hours after LPS", "value": "inhibition"}, {"measurement": "LPS-induced NF-κB expression", "setting": "[3]", "value": "decreased"}]}
